US20020045595A1, “N6 heterocyclic 8-modified adenosine derivatives” (priority 1999, published 2002)

Assays:
[1] = system: A1 adenosine receptor (DDT1 cells); experiment: cAMP assay (SPA) in DDT1 cells with forskolin; type: cell-based, hamster; details: 5 μM forskolin; for cAMP: rolipram 50 μM, normalized to the full agonist CPA
Description: (§1) DDT cells (hamster vas deferens smooth muscle cell line) were grown as monolayers in petri dishes using Dulbecco's Modified Eagle's Medium (DMEM) containing 2.5 μg ml^−1 amphotericin B, 100 U ml^−1 penicillin G, 0.1 mg ml^−1 streptomycin sulfate and 5% fetal bovine serum in a humidified atmosphere of 95% air and 5% CO2. Cells were subcultured twice weekly by dispersion in Hank's Balanced Salt Solution (HBSS) without the divalent cations and containing 1 mM EDTA. The cells were then seeded in growth medium at a density of […] per plate and experiments were performed 4 days later at approximately one day preconfluence.
A scintillation proximity assay (SPA) using rabbit antibodies directed at cAMP using an added tracer of adenosine 3′,5′-cyclic phosphoric acid 2′-O-succinyl-3-[^125I] iodotyrosine methyl ester and fluoromicrospheres containing anti-rabbit specific antibodies as described by Amersham Pharmacia Biotech (Biotrak cellular communication assays). Briefly, DDT1 cells were cultured in clear bottomed 96 well microtiter plates with opaque wells at concentrations between 10^4 to 10^6 cells per well in 40 μl of HBSS at 37° C. (5% CO2 and 95% humidity). The partial or full A1 agonists (5 μl )of this invention were incubated at various concentrations with the DDT1 cells in the presence of rolipram (50 μM), and 5 μM forskolin for 10 min at 37° C. The cells were immediately lysed by treatment 5 μl of 10% dodecyltrimethylammonium bromide followed by shaking using microplate shaker. After incubation of the plate for 5 minutes, an immunoreagent solution (150 μl containing equal volumes of tracer, antiserum, and SPA fluorospheres) was added to each well followed by sealing the plate. After 15-20 h at 23° C., the amount of bound [^125I] cAMP to the fluoromicrospheres was determined by counting in a microtitre plate scintillation counter for 2 minutes. Comparison of counts with standard curves generated for cAMP using a similar protocol afforded the cAMP present after cell lysis.

[2] = biological target: T1, A1 receptor (Sus scrofa, UniProt I3LEN5); experiment: Competitive binding assay, pig striatum membranes, [3H]CPX; details: pig striatum membrane prep, antagonist [3H]CPX 2 nM
T1 sequence (I3LEN5 1-326): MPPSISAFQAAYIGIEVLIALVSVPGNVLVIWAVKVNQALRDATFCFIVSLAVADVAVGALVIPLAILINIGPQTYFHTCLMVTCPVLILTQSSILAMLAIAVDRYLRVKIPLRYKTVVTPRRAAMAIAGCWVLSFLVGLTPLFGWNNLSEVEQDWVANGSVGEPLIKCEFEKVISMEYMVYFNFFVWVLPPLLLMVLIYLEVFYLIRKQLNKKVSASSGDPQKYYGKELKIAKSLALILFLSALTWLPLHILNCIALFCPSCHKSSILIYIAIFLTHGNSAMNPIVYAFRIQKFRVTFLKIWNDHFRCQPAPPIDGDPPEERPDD
Description: Pig striatum were prepared by homogenation in 50 mM Tris buffer ( 5x volume of tissue mass pH=7.4). After centrifugation at 19,000 rpm for 25 minutes at 4° C., the supernatant was discarded, and the process was repeated twice. Compositions of this invention were assayed to determine their affinity for the A1 receptor in a pig striatum membrane prep or a DDT1 membrane prep. Briefly, 0.2 mg of pig striatal membranes or DDT1 cell membranes were treated with adenosine deaminase and 50 mM Tris buffer (pH=7.4) followed by mixing. To the pig membranes was added 2 μL of serially diluted DMSO stock solution of the compounds of this invention at concentrations ranging from 100 microM to 10 nM. The control received 2 microL of DMSO alone, then the antagonist [^3H] 8-cyclopentylxanthine (CPX) for pig striatum or the agonist [3H] 2-chloro-6-cyclopentyladenosine (CCPA) for DDT1 membranes in Tris buffer (50 mM, pH of 7.4) was added to achieve a final concentration of 2 nM. After bation at 23 C. for 2 h, then the solutions were filtered using a membrane harvester using iple washing of the membranes (3 x). The filter disks were counted in scintillation cocktail rding the amount of displacement of tritiated CPX or by the competitive binding ositions of this invention. Greater than a 5 point curve was used to generate Ki's and the er of experiments is indicated in the column marked in Table 1, below: […]

[3] = biological target: T2, A1 AdoR (Mesocricetus auratus, UniProt A0A1U8BVR4); experiment: A1-agonist stimulated [35S]GTPγS binding assay, DDT1 membranes; type: biochemical, hamster; details: [35S]GTPγS binding normalized to the full agonist CPA
T2 construct: endogenous in cells; host or cells: DDT1 (DDT) hamster vas deferens smooth muscle cells, membrane preparation
T2 sequence (A0A1U8BVR4 1-326): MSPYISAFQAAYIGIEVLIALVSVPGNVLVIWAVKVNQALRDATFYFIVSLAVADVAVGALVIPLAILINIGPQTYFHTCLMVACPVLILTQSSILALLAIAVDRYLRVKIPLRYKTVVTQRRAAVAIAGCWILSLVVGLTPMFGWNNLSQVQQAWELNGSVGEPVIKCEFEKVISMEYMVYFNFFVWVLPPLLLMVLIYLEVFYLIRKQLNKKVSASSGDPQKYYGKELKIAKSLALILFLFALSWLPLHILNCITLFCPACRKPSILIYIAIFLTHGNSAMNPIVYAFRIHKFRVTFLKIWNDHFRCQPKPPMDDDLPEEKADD
Description: as §1
Attached cells were washed twice with HBSS (2×10 ml), scraped free of the plate with the aid of a rubber policeman in 5 ml of 50 mM Tris-HCl buffer pH 7.4 at 4° C. and the suspension homogenized for 10 s. The suspension was then centrifuged at 27,000 x g for 10 min. The pellet was resuspended in homogenization buffer by vortexing and centrifuged as described above. The final pellet was resuspended in 1 vol of 50 mM Tris-HCl buffer pH 7.4 containing 5 mM MgCl2 for A1 AdoR assays. For the [^35S]GTPγS binding assay the final pellet was resuspended in 50 mM Tris-HCl pH 7.4 containing 5 mM MgCl2, 100 mM NaCl and 1 mM dithiothreitol. This membrane suspension was then placed in liquid nitrogen for 10 min, thawed and used for assays. The protein content was determined with a Bradford™ Assay Kit using bovine serum albumin as standard.
A1-agonist stimulated [^35S] GTPγS binding was determined by a modification of the method described by Giersckik et al. (1991) and Lorenzen et al. (1993). […] Nonspecific binding was determined by the addition of 10 μM GTPγS. […] Previous reports have shown that agonist stimulated [^35S]GTPγS binding was dependent on the presence of GDP (Gierschik et al., 1991; Lorenzen et al., 1993; Traynor & Nahorski, 1995). […] In saturation experiments, 0.5 nM [^35S]GTPγS was incubated with 0.5-1000 nM GTPγS. At the end of the incubation, each suspension was filtered and the retained radioactivity determined as described above.

In the case of `OC[C@H]1O[C@@H](n2cnc3c(NC4CCCC4)ncnc32)[C@H](O)[C@@H]1O` [CPA, N-6-cyclopentyladenosine, reference compound], the “forskolin induced cAMP generation” value [1] is reported as “back to basal levels” and the cAMP [1] is reported as 100%.

In the case of `CCNc1nc2c(N[C@@H]3CCOC3)ncnc2n1[C@@H]1O[C@H](CO)[C@@H](O)[C@H]1O` [Compound 5, 2-{6-[((3 R)oxolan-3-yl)amino]-8-(ethylamino)purin-9-yl}(4 S,2 R,3 R,5 R)-5-(hydroxymethyl)oxolane-3,4-diol], the Ki [2] is reported as 137 nM and the GIPγS [3] is reported as 89%.

With `CNc1nc2c(NC3CCOC3)ncnc2n1C1OC(CO)C(O)C1O` (stereo not drawn) [Compound 7] the Ki [2] was 799 nM.

`CCCNc1nc2c(N[C@@H]3CCOC3)ncnc2n1[C@@H]1O[C@H](CO)[C@@H](O)[C@H]1O` [Compound 8, 2-{6-[((3 R)oxolan-3-yl)amino]-8-(propylamino)purin-9-yl}(4 S,2 R,3 R,5 R)-5-(hydroxymethyl)oxolane-3,4-diol] showed a Ki [2] of 1040 nM.

In the case of `CCCCNc1nc2c(N[C@@H]3CCOC3)ncnc2n1[C@@H]1O[C@H](CO)[C@@H](O)[C@H]1O` [Compound 9, 2-{6-[((3 R)oxolan-3-yl)amino]-8-(butylamino)purin-9-yl}(4S,2 R,3 R,5 R)-5-(hydroxymethyl)oxolane-3,4-diol], the Ki [2] is reported as 2840 nM.

`OC[C@H]1O[C@@H](n2c(NCc3ccccc3)nc3c(N[C@@H]4CCOC4)ncnc32)[C@H](O)[C@@H]1O` [Compound 10, 2-{6-[((3 R)oxolan-3-yl)amino]-8-[benzylamino]purin-9-yl}(4 S,2 R,3 R,5 R)-5-(hydroxymethyl)oxolane-3,4-diol] showed a Ki [2] of 7470 nM.

`CC(C)Nc1nc2c(N[C@@H]3CCOC3)ncnc2n1[C@@H]1O[C@H](CO)[C@@H](O)[C@H]1O` [Compound 11, 2-{6-[((3 R)oxolan-3-yl)amino]-8-[(methylethyl)amino]purin-9-yl}(4 S,2 R,3 R,5 R)-5-(hydroxymethyl)oxolane-3,4-diol] was tested, and the GIPγS [3] was 68% and the cAMP [1] was 37%.

`C=CCNc1nc2c(N[C@@H]3CCOC3)ncnc2n1[C@@H]1O[C@H](CO)[C@@H](O)[C@H]1O` [Compound 12, 2-{6-[((3 R)oxolan-3-yl)amino]-8-(prop-2-enylamino)purin-9-yl}(4 S,2 R,3 R,5 R)-5-(hydroxymethyl)oxolane-3,4-diol] was tested, and the GIPγS [3] was 77% and the cAMP [1] was 42%.
